Measured values: PubChem BioAssay (NCI)
Where “and” joins values, the source holds several entries; their conditions need not be identical. Equal entries are not always repeated.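 Cells were grown in 96-well plates and exposed to each compound for 48 hours at five concentrations; endpoints were interpolated linearly between bracketing concentrations, or set to the highest concentration if not reached. Here, GI50 denotes the concentration required for 50% inhibition of growth. TGI marks complete inhibition of growth.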

Assays:
Assay in all cases: NCI tumour cell line growth inhibition, 48 h
SK-MEL-5 melanoma = tested on: SK-MEL-5 melanoma
SF-539 CNS = tested on: SF-539 CNS
SK-MEL-28 melanoma = tested on: SK-MEL-28 melanoma
HOP-62 NSCLC = tested on: HOP-62 NSCLC
786-0 renal = tested on: 786-0 renal
DU-145 prostate = tested on: DU-145 prostate
NCI-H23 lung = tested on: NCI-H23 lung
CCRF-CEM leukemia = tested on: CCRF-CEM leukemia
RXF 393 renal = tested on: RXF 393 renal
NCI/ADR-RES ovarian = tested on: NCI/ADR-RES ovarian

COc1ccc(C2=NN(C(=O)COc3ccc(Cl)cc3)C(O)(c3cc(F)c(Cl)cc3Cl)C2)cc1OC (centres undefined)
GI50 (SK-MEL-5 melanoma): 8.29 µM
TGI (SK-MEL-5 melanoma): 20.9 µM
GI50 (SF-539 CNS): 1.81 µM
TGI (SF-539 CNS): 3.55 µM
GI50 (SK-MEL-28 melanoma): 1.85 µM
TGI (SK-MEL-28 melanoma): 3.5 µM
GI50 (HOP-62 NSCLC): 13.9 µM
TGI (HOP-62 NSCLC): 30.8 µM
GI50 (786-0 renal): 3.31 µM
TGI (786-0 renal): 8.9 µM
GI50 (DU-145 prostate): 1.25 µM
TGI (DU-145 prostate): 3.73 µM
GI50 (NCI-H23 lung): 4.74 µM
TGI (NCI-H23 lung): 17.8 µM
GI50 (CCRF-CEM leukemia): 0.218 µM
TGI (CCRF-CEM leukemia): 1.8 µM
GI50 (RXF 393 renal): 0.474 µM
TGI (RXF 393 renal): 1.48 µM
GI50 (NCI/ADR-RES ovarian): 2.94 µM
TGI (NCI/ADR-RES ovarian): 8.73 µM

C/C=C(\C)C(=O)N[C@H]1[C@@H](OC(C)=O)C[C@]2(C)C3CC[C@@]4(C)C(CC[C@@H]4C(C)N(C)C)C3CCC2[C@H]1O (some centres undefined)
GI50 (SK-MEL-5 melanoma): 1.6 µM
TGI (SK-MEL-5 melanoma): 3.77 µM
GI50 (SF-539 CNS): 1.87 µM
TGI (SF-539 CNS): 4.97 µM
GI50 (SK-MEL-28 melanoma): 1.83 µM
TGI (SK-MEL-28 melanoma): 3.67 µM
GI50 (HOP-62 NSCLC): 3.42 µM
TGI (HOP-62 NSCLC): 9.29 µM
GI50 (786-0 renal): 5.22 µM
TGI (786-0 renal): 16.3 µM
GI50 (DU-145 prostate): 6.4 µM
TGI (DU-145 prostate): 21.3 µM
GI50 (NCI-H23 lung): 11.7 µM
TGI (NCI-H23 lung): 28.2 µM
GI50 (CCRF-CEM leukemia): 3.57 µM
TGI (CCRF-CEM leukemia): 21.2 µM
GI50 (RXF 393 renal): 1.71 µM
TGI (RXF 393 renal): 14.4 µM
GI50 (NCI/ADR-RES ovarian): 9.79 µM
TGI (NCI/ADR-RES ovarian): 30.3 µM

CCOC(=O)Cc1csc(/N=C2\NC(=O)/C(=C3\C(=O)N(C)c4ccccc43)S2)n1
GI50 (SK-MEL-5 melanoma): 38 µM
TGI (SK-MEL-5 melanoma): > 100 µM
GI50 (SF-539 CNS): 43.8 µM
TGI (SF-539 CNS): > 100 µM
GI50 (SK-MEL-28 melanoma): 80.3 µM
TGI (SK-MEL-28 melanoma): > 100 µM
GI50 (HOP-62 NSCLC): 30.1 µM
TGI (HOP-62 NSCLC): 87.9 µM
GI50 (786-0 renal): 28 µM
TGI (786-0 renal): 72.5 µM
GI50 (DU-145 prostate): 41.4 µM
TGI (DU-145 prostate): > 100 µM
GI50 (NCI-H23 lung): 48 µM
TGI (NCI-H23 lung): > 100 µM
GI50 (CCRF-CEM leukemia): 26.1 µM
TGI (CCRF-CEM leukemia): 61.9 µM
GI50 (RXF 393 renal): 73.3 µM
TGI (RXF 393 renal): > 100 µM
GI50 (NCI/ADR-RES ovarian): 49.6 µM
TGI (NCI/ADR-RES ovarian): > 100 µM

CCN(CC)CCOc1ccc(Nc2ncc3cc(-c4ccc(O)cc4)c(=O)n(C)c3n2)cc1
GI50 (SK-MEL-5 melanoma): 14.8 µM
TGI (SK-MEL-5 melanoma): 31 µM
GI50 (SF-539 CNS): 0.629 µM
TGI (SF-539 CNS): 11.6 µM
GI50 (SK-MEL-28 melanoma): 10.6 µM
TGI (SK-MEL-28 melanoma): 27.6 µM
GI50 (HOP-62 NSCLC): 2.78 µM
TGI (HOP-62 NSCLC): 23.7 µM
GI50 (786-0 renal): 0.391 µM
TGI (786-0 renal): 2.65 µM
GI50 (DU-145 prostate): 12.9 µM
TGI (DU-145 prostate): 26.3 µM
GI50 (NCI-H23 lung): 12.7 µM
TGI (NCI-H23 lung): 36.2 µM
GI50 (CCRF-CEM leukemia): 0.845 µM
TGI (CCRF-CEM leukemia): > 26.4 µM
GI50 (RXF 393 renal): 0.147 µM
TGI (RXF 393 renal): 1.67 µM
GI50 (NCI/ADR-RES ovarian): 12.7 µM
TGI (NCI/ADR-RES ovarian): 41.5 µM

CCCCCNC(=O)[C@@H]1CCCN2C(=O)CC[C@H](NC(=O)[C@H](Cc3ccc(OP(=O)(O)O)cc3)NC(C)=O)C(=O)N12
GI50 (SK-MEL-5 melanoma): > 25 µM
TGI (SK-MEL-5 melanoma): > 25 µM
GI50 (SF-539 CNS): > 25 µM
TGI (SF-539 CNS): > 25 µM
GI50 (SK-MEL-28 melanoma): > 25 µM
TGI (SK-MEL-28 melanoma): > 25 µM
GI50 (HOP-62 NSCLC): > 25 µM
TGI (HOP-62 NSCLC): > 25 µM
GI50 (786-0 renal): > 25 µM
TGI (786-0 renal): > 25 µM
GI50 (DU-145 prostate): > 25 µM
TGI (DU-145 prostate): > 25 µM
GI50 (NCI-H23 lung): > 25 µM
TGI (NCI-H23 lung): > 25 µM
GI50 (CCRF-CEM leukemia): > 25 µM
TGI (CCRF-CEM leukemia): > 25 µM
GI50 (RXF 393 renal): > 25 µM
TGI (RXF 393 renal): > 25 µM
GI50 (NCI/ADR-RES ovarian): > 25 µM
TGI (NCI/ADR-RES ovarian): > 25 µM

O=C1/C(=C/c2ccc(O)c([N+](=O)[O-])c2)CCC/C1=C\c1ccc(O)c([N+](=O)[O-])c1
GI50 (SK-MEL-5 melanoma): 14.7 µM
TGI (SK-MEL-5 melanoma): 17.4 µM and 31.5 µM
TGI (SF-539 CNS): 50 µM
GI50 (SK-MEL-28 melanoma): 19.9 µM
TGI (SK-MEL-28 melanoma): 20.3 µM and 45 µM
GI50 (HOP-62 NSCLC): 25 µM
TGI (HOP-62 NSCLC): 28 µM and > 100 µM
GI50 (786-0 renal): 43.7 µM
TGI (786-0 renal): 25.5 µM and > 100 µM
GI50 (DU-145 prostate): 2.99 µM
TGI (DU-145 prostate): 20.3 µM and 15.3 µM
GI50 (NCI-H23 lung): 8.14 µM
TGI (NCI-H23 lung): 32.6 µM and 25.2 µM
GI50 (CCRF-CEM leukemia): 14.9 µM
TGI (CCRF-CEM leukemia): 50 µM and 56.2 µM
GI50 (RXF 393 renal): 1.53 µM
TGI (RXF 393 renal): 19.6 µM and 5.91 µM
GI50 (NCI/ADR-RES ovarian): 16.3 µM
TGI (NCI/ADR-RES ovarian): 50 µM and 41.7 µM

N=C1c2nc3n(c2C(=O)c2nc4n(c21)CCCC4)CCCC3
GI50 (SK-MEL-5 melanoma): 0.431 µM
TGI (SK-MEL-5 melanoma): 0.864 µM
GI50 (SF-539 CNS): 2.42 µM
TGI (SF-539 CNS): 5.2 µM
GI50 (SK-MEL-28 melanoma): 1.84 µM
TGI (SK-MEL-28 melanoma): 3.7 µM
GI50 (HOP-62 NSCLC): 0.921 µM
TGI (HOP-62 NSCLC): 3.54 µM
GI50 (786-0 renal): 32.2 µM
TGI (786-0 renal): > 89.3 µM
GI50 (DU-145 prostate): 1.5 µM
TGI (DU-145 prostate): 2.9 µM
GI50 (NCI-H23 lung): 1.37 µM
TGI (NCI-H23 lung): 3.86 µM
GI50 (CCRF-CEM leukemia): 20.5 µM
TGI (CCRF-CEM leukemia): > 100 µM
GI50 (RXF 393 renal): 15.8 µM
TGI (RXF 393 renal): 51 µM
GI50 (NCI/ADR-RES ovarian): 35.6 µM
TGI (NCI/ADR-RES ovarian): > 100 µM

[N-]=[N+]=C(C(=O)OCC#CCOC(=O)C(=[N+]=[N-])S(=O)(=O)c1ccccc1)S(=O)(=O)c1ccccc1
TGI (SK-MEL-5 melanoma): > 10 µM
TGI (SF-539 CNS): > 10 µM
TGI (SK-MEL-28 melanoma): > 10 µM
TGI (HOP-62 NSCLC): > 10 µM
TGI (786-0 renal): > 10 µM
TGI (DU-145 prostate): > 10 µM
TGI (NCI-H23 lung): > 10 µM
TGI (CCRF-CEM leukemia): > 10 µM
TGI (RXF 393 renal): > 10 µM
TGI (NCI/ADR-RES ovarian): > 10 µM

COc1cc(Cl)cc(-c2nn(C(=O)NCCN3CCN(C)CC3)cc2-c2ccncc2)c1
GI50 (SK-MEL-5 melanoma): 3.76 µM
TGI (SK-MEL-5 melanoma): 16.7 µM
GI50 (SF-539 CNS): 2.84 µM
TGI (SF-539 CNS): 22.6 µM
GI50 (SK-MEL-28 melanoma): 5.31 µM
TGI (SK-MEL-28 melanoma): 40.6 µM
GI50 (HOP-62 NSCLC): 5.87 µM
TGI (HOP-62 NSCLC): 44.5 µM
GI50 (786-0 renal): 5.99 µM
TGI (786-0 renal): 25.6 µM
GI50 (DU-145 prostate): 12.3 µM
TGI (DU-145 prostate): 66.5 µM
GI50 (NCI-H23 lung): 20.1 µM
TGI (NCI-H23 lung): 82 µM
GI50 (CCRF-CEM leukemia): 43 µM
TGI (CCRF-CEM leukemia): > 100 µM
GI50 (RXF 393 renal): 2.41 µM
TGI (RXF 393 renal): 18.1 µM
GI50 (NCI/ADR-RES ovarian): 19.8 µM
TGI (NCI/ADR-RES ovarian): 88.5 µM

OCC(O)C(O)C(O)C1SC(c2ccccc2)=NN1c1ccccc1 (centres undefined)
TGI (SK-MEL-5 melanoma): > 100 µM
TGI (SF-539 CNS): 98.7 µM
TGI (SK-MEL-28 melanoma): > 100 µM
TGI (HOP-62 NSCLC): > 100 µM
TGI (786-0 renal): > 100 µM
TGI (DU-145 prostate): > 100 µM
TGI (NCI-H23 lung): > 95.7 µM
TGI (CCRF-CEM leukemia): > 100 µM
TGI (RXF 393 renal): 47.9 µM
TGI (NCI/ADR-RES ovarian): > 100 µM
